Experimental data from PubChem BioAssay AID1745844 (Carcinogenic Potency Database (CPDB), 2022).
Where “and” joins values, the source holds several entries; their conditions need not be identical. Equal values may be shown once. Calls of active or inactive are those of the source. How the calls were made is not given here.

Tested on: rodent lifetime carcinogenesis bioassay, tumor incidence TD50
Experiment: carcinogenic potency in animals, long-term in vivo studies, CPDB compilation (AID 1745844)
[1] = mouse, strain ddNi, males, in feed, site: liver, lesion: adenoma-like tumor, dosed 160 weeks, study length 160 weeks

[CH3][Hg][Cl]
TD50 (mouse, strain B6C3F1, females, in feed, site: kidney, lesion: renal-cell adenoma, dosed 104 weeks, study length 104 weeks): 65.8 mg/kg/day | TD50 (mouse, strain B6C3F1, males, in feed, site: kidney, lesion: renal-cell adenoma, dosed 104 weeks, study length 104 weeks): 9.83 mg/kg/day | TD50 (mouse, strain B6C3F1, males, in feed, site: kidney, lesion: renal-cell carcinoma, dosed 104 weeks, study length 104 weeks): 4.28 mg/kg/day | TD50 (mouse, strain B6C3F1, males, in feed, site: kidney, lesion: several types, types named in the paper, dosed 104 weeks, study length 104 weeks): 3.19 mg/kg/day | carcinogen call (mouse, strain Charles River CD1, females, in drinking water, site: any site (literature study), lesion: malignant tumor, dosed 143 weeks, study length 151 weeks): negative (inactive) | TD50 (mouse, strain Charles River CD1, females, in drinking water, site: any site (literature study), lesion: several types, types named in the paper, dosed 143 weeks, study length 151 weeks): 2.13 mg/kg/day (inactive) | carcinogen call (mouse, strain Charles River CD1, females, in drinking water, site: lung, lesion: one or several types, types not named, dosed 143 weeks, study length 151 weeks): negative (inactive) | TD50 (mouse, strain Charles River CD1, males, in drinking water, site: any site (literature study), lesion: malignant tumor, dosed 135 weeks, study length 159 weeks): 9.64 mg/kg/day (inactive) | TD50 (mouse, strain Charles River CD1, males, in drinking water, site: any site (literature study), lesion: several types, types named in the paper, dosed 135 weeks, study length 159 weeks): 5.63 mg/kg/day (inactive) | carcinogen call (mouse, strain Charles River CD1, males, in drinking water, site: lung, lesion: one or several types, types not named, dosed 135 weeks, study length 159 weeks): negative (inactive) | carcinogen call (mouse, strain ICR, females, in feed, site: kidney, lesion: adenoma, dosed 80 weeks, study length 80 weeks): negative (inactive) | carcinogen call (mouse, strain ICR, females, in feed, site: kidney, lesion: one or several types, types not named, dosed 52 weeks, study length 52 weeks): negative (inactive) | carcinogen call (mouse, strain ICR, females, in feed, site: kidney, lesion: one or several types, types not named, dosed 78 weeks, study length 78 weeks): negative (inactive) | carcinogen call (mouse, strain ICR, females, in feed, site: kidney, lesion: one or several types, types not named, dosed 104 weeks, study length 104 weeks): negative (inactive) | TD50 (mouse, strain ICR, females, in feed, site: liver, lesion: hemangioma, dosed 80 weeks, study length 80 weeks): 26.1 mg/kg/day (inactive) | carcinogen call (mouse, strain ICR, females, in feed, site: liver, lesion: hepatocellular adenoma, dosed 80 weeks, study length 80 weeks): negative (inactive) | carcinogen call (mouse, strain ICR, females, in feed, site: liver, lesion: hepatocellular carcinoma, dosed 80 weeks, study length 80 weeks): negative (inactive) | TD50 (mouse, strain ICR, females, in feed, site: lung, lesion: adenocarcinoma, dosed 80 weeks, study length 80 weeks): 11.6 mg/kg/day (inactive) | carcinogen call (mouse, strain ICR, females, in feed, site: lung, lesion: adenoma, dosed 80 weeks, study length 80 weeks): negative (inactive) | TD50 (mouse, strain ICR, males, in feed, site: kidney, lesion: adenocarcinoma, dosed 78 weeks, study length 78 weeks): 3.2 mg/kg/day | TD50 (mouse, strain ICR, males, in feed, site: kidney, lesion: adenocarcinoma, dosed 80 weeks, study length 80 weeks): 1.48 mg/kg/day | TD50 (mouse, strain ICR, males, in feed, site: kidney, lesion: adenocarcinoma, dosed 102 weeks, study length 104 weeks): 1.88 mg/kg/day | TD50 (mouse, strain ICR, males, in feed, site: kidney, lesion: adenoma, dosed 80 weeks, study length 80 weeks): 24.1 mg/kg/day | TD50 (mouse, strain ICR, males, in feed, site: kidney, lesion: several types, types named in the paper, dosed 78 weeks, study length 78 weeks): 0.896 mg/kg/day | TD50 (mouse, strain ICR, males, in feed, site: kidney, lesion: several types, types named in the paper, dosed 80 weeks, study length 80 weeks): 1.36 mg/kg/day | TD50 (mouse, strain ICR, males, in feed, site: kidney, lesion: several types, types named in the paper, dosed 102 weeks, study length 104 weeks): 1.69 mg/kg/day | TD50 (mouse, strain ICR, males, in feed, site: lung, lesion: adenocarcinoma, dosed 80 weeks, study length 80 weeks): 5.1 mg/kg/day | TD50 (rat, strain Sprague-Dawley, females, in feed, site: kidney, lesion: adenoma, dosed 130 weeks, study length 130 weeks): 15.7 mg/kg/day (inactive) | carcinogen call (rat, strain Sprague-Dawley, females, in feed, site: liver, lesion: one or several types, types not named, dosed 52 weeks, study length 52 weeks): negative (inactive) | carcinogen call (rat, strain Sprague-Dawley, females, in feed, site: liver, lesion: one or several types, types not named, dosed 78 weeks, study length 78 weeks): negative (inactive) | carcinogen call (rat, strain Sprague-Dawley, females, in feed, site: liver, lesion: one or several types, types not named, dosed 130 weeks, study length 130 weeks): negative (inactive) | carcinogen call (rat, strain Sprague-Dawley, males, in feed, site: liver, lesion: one or several types, types not named, dosed 52 weeks, study length 52 weeks): negative (inactive) | carcinogen call (rat, strain Sprague-Dawley, males, in feed, site: liver, lesion: one or several types, types not named, dosed 78 weeks, study length 78 weeks): negative (inactive) | carcinogen call (rat, strain Sprague-Dawley, males, in feed, site: liver, lesion: one or several types, types not named, dosed 130 weeks, study length 130 weeks): negative (inactive) | carcinogen call (rat, strain Wistar, females, in feed, site: liver, lesion: one or several types, types not named, dosed 104 weeks, study length 104 weeks): negative (inactive) | carcinogen call (rat, strain Wistar, males, in feed, site: liver, lesion: one or several types, types not named, dosed 104 weeks, study length 104 weeks): negative (inactive)

CCCCCCCCS(=O)C(C)Cc1ccc2c(c1)OCO2 (stereo not given)
TD50 (mouse, strain B6AKF1, males, oral dosing, site: liver, lesion: hepatoma, dosed 76 weeks, study length 76 weeks): 88.2 mg/kg/day | carcinogen call (mouse, strain B6C3F1, females, in feed, site: any site (literature study), lesion: several types, types named in the paper, dosed 104 weeks, study length 104 weeks): negative (inactive) | TD50 (mouse, strain B6C3F1, females, in feed, site: liver, lesion: hepatocellular adenoma + hepatocellular carcinoma + neoplastic nodule, dosed 104 weeks, study length 104 weeks): 725 mg/kg/day | TD50 (mouse, strain B6C3F1, females, oral dosing, site: any site (literature study), lesion: several types, types named in the paper, dosed 76 weeks, study length 76 weeks): 100 mg/kg/day | TD50 (mouse, strain B6C3F1, males, in feed, site: any site (literature study), lesion: several types, types named in the paper, dosed 104 weeks, study length 104 weeks): 423 mg/kg/day | TD50 (mouse, strain B6C3F1, males, in feed, site: liver, lesion: hepatocellular adenoma + hepatocellular carcinoma + neoplastic nodule, dosed 104 weeks, study length 104 weeks): 62.2 mg/kg/day | TD50 (mouse, strain B6C3F1, males, in feed, site: liver, lesion: hepatocellular carcinoma, dosed 104 weeks, study length 104 weeks): 62.2 mg/kg/day | TD50 (mouse, strain B6C3F1, males, oral dosing, site: all sites, lesion: reticulum-cell sarcoma, dosed 76 weeks, study length 76 weeks): 9.1 mg/kg/day | TD50 (mouse, strain B6C3F1, males, oral dosing, site: any site (literature study), lesion: several types, types named in the paper, dosed 76 weeks, study length 76 weeks): 7.72 mg/kg/day | TD50 (mouse, strain B6C3F1, males, oral dosing, site: liver, lesion: hepatoma, dosed 76 weeks, study length 76 weeks): 45.4 mg/kg/day | TD50 (rat, strain Fischer 344, females, in feed, site: any site (literature study), lesion: several types, types named in the paper, dosed 105 weeks, study length 105 weeks): 2300 mg/kg/day (inactive) | carcinogen call (rat, strain Fischer 344, males, in feed, site: any site (literature study), lesion: several types, types named in the paper, dosed 105 weeks, study length 105 weeks): negative (inactive) | TD50 (rat, strain Fischer 344, males, in feed, site: liver, lesion: hepatocellular adenoma + hepatocellular carcinoma + neoplastic nodule, dosed 105 weeks, study length 105 weeks): 2650 mg/kg/day

Cc1cccc2ccccc12
TD50 (mouse, strain B6C3F1, females, in feed, site: liver, lesion: hepatocellular adenoma, dosed 81 weeks, study length 81 weeks): 979 mg/kg/day | TD50 (mouse, strain B6C3F1, females, in feed, site: liver, lesion: hepatocellular carcinoma, dosed 81 weeks, study length 81 weeks): 6040 mg/kg/day | TD50 (mouse, strain B6C3F1, males, in feed, site: any site (literature study), lesion: one or several types, types not named, dosed 81 weeks, study length 81 weeks): 2260 mg/kg/day | TD50 (mouse, strain B6C3F1, males, in feed, site: lung, lesion: alveolar/bronchiolar adenoma, dosed 81 weeks, study length 81 weeks): 244 mg/kg/day | TD50 (mouse, strain B6C3F1, males, in feed, site: lung, lesion: alveolar/bronchiolar carcinoma, dosed 81 weeks, study length 81 weeks): 1830 mg/kg/day | TD50 (mouse, strain B6C3F1, males, in feed, site: lung, lesion: several types, types named in the paper, dosed 81 weeks, study length 81 weeks): 201 mg/kg/day

Cc1cc(O)c2c(c1O)C(=O)C13C(=C2O)C(=O)C2C(O)C1C1C(O)C3C(=O)C3=C(O)c4c(O)cc(C)c(O)c4C(=O)C321 (stereo not given)
TD50 (mouse, strain ddNi, females, in feed, site: liver, lesion: liver-cell adenoma, dosed 160 weeks, study length 160 weeks): 122 mg/kg/day | TD50 (mouse, strain ddNi, females, in feed, site: liver, lesion: liver-cell carcinoma, dosed 160 weeks, study length 160 weeks): 248 mg/kg/day | TD50 (mouse, strain ddNi, females, in feed, site: liver, lesion: several types, types named in the paper, dosed 160 weeks, study length 160 weeks): 79.4 mg/kg/day | TD50 [1]: 113 mg/kg/day | carcinogen call [1]: positive | TD50 (mouse, strain ddNi, males, in feed, site: liver, lesion: hepatoma, dosed 160 weeks, study length 160 weeks): 89.5 mg/kg/day and 74.3 mg/kg/day and 113 mg/kg/day | TD50 (mouse, strain ddNi, males, in feed, site: liver, lesion: liver-cell adenoma, dosed 160 weeks, study length 160 weeks): 83.7 mg/kg/day and 25.1 mg/kg/day and 231 mg/kg/day | TD50 (mouse, strain ddNi, males, in feed, site: liver, lesion: liver-cell carcinoma, dosed 160 weeks, study length 160 weeks): 332 mg/kg/day | TD50 (mouse, strain ddNi, males, in feed, site: liver, lesion: several types, types named in the paper, dosed 160 weeks, study length 160 weeks): 14.8 mg/kg/day

CC(Cl)(Cl)Cl
TD50 (mouse, strain B6C3F1, females, by gavage, site: lung, lesion: alveolar/bronchiolar adenoma + alveolar/bronchiolar carcinoma, dosed 78 weeks, study length 90 weeks): 260000 mg/kg/day | carcinogen call (mouse, strain B6C3F1, females, inhaled, site: liver, lesion: hepatocellular adenoma, dosed 104 weeks, study length 104 weeks): negative (inactive) | carcinogen call (mouse, strain B6C3F1, females, inhaled, site: liver, lesion: hepatocellular carcinoma, dosed 104 weeks, study length 104 weeks): negative (inactive) | carcinogen call (mouse, strain B6C3F1, females, inhaled, site: liver, lesion: several types, types named in the paper, dosed 104 weeks, study length 104 weeks): negative (inactive) | TD50 (mouse, strain B6C3F1, males, by gavage, site: any site (literature study), lesion: several types, types named in the paper, dosed 78 weeks, study length 90 weeks): 30500 mg/kg/day | TD50 (mouse, strain B6C3F1, males, by gavage, site: liver, lesion: hepatocellular adenoma + hepatocellular carcinoma + neoplastic nodule, dosed 78 weeks, study length 90 weeks): 39700 mg/kg/day | TD50 (mouse, strain B6C3F1, males, by gavage, site: lung, lesion: alveolar/bronchiolar adenoma + alveolar/bronchiolar carcinoma, dosed 78 weeks, study length 90 weeks): 5.08e+06 mg/kg/day | carcinogen call (mouse, strain B6C3F1, males, inhaled, site: liver, lesion: hepatocellular adenoma, dosed 104 weeks, study length 104 weeks): negative (inactive) | TD50 (mouse, strain B6C3F1, males, inhaled, site: liver, lesion: hepatocellular carcinoma, dosed 104 weeks, study length 104 weeks): 66300 mg/kg/day (inactive) | carcinogen call (mouse, strain B6C3F1, males, inhaled, site: liver, lesion: several types, types named in the paper, dosed 104 weeks, study length 104 weeks): negative (inactive) | carcinogen call (rat, strain Fischer 344, females, inhaled, site: liver, lesion: hepatocellular carcinoma, dosed 104 weeks, study length 104 weeks): negative (inactive) | carcinogen call (rat, strain Fischer 344, females, inhaled, site: liver, lesion: neoplastic nodule, dosed 104 weeks, study length 104 weeks): negative (inactive) | TD50 (rat, strain Fischer 344, males, inhaled, site: liver, lesion: hepatocellular carcinoma, dosed 104 weeks, study length 104 weeks): 2070 mg/kg/day (inactive) | TD50 (rat, strain Fischer 344, males, inhaled, site: liver, lesion: neoplastic nodule, dosed 104 weeks, study length 104 weeks): 5120 mg/kg/day (inactive) | TD50 (rat, strain Osborne-Mendel, females, by gavage, site: any site (literature study), lesion: several types, types named in the paper, dosed 78 weeks, study length 112 weeks): 226 mg/kg/day | TD50 (rat, strain Osborne-Mendel, males, by gavage, site: any site (literature study), lesion: several types, types named in the paper, dosed 78 weeks, study length 106 weeks): 950 mg/kg/day
